# Experimental data as given in patent US8906925B2, “Pyrido[4,3-B]indoles containing rigid moieties” (Medivation Technologies, Inc., priority 2008, dated 2014).
# Values joined by “and” are separate entries in the source; they are usually repeats but may differ in a detail not shown here. Equal entries are not always repeated. Where two headings read alike, the source gives them in different places.
# Columns and labels:
# [1] = target: T1, human recombinant adrenergic α2B receptor (Homo sapiens, UniProt P18089); assay: Adrenergic α2B radioligand binding ([3H]Rauwolscine); conditions: compound at 1 μM
# T1 construct: expressed in transfected cells; host or cells: Chinese hamster ovary (CHO-K1) cells
# T1 sequence (P18089 1-450): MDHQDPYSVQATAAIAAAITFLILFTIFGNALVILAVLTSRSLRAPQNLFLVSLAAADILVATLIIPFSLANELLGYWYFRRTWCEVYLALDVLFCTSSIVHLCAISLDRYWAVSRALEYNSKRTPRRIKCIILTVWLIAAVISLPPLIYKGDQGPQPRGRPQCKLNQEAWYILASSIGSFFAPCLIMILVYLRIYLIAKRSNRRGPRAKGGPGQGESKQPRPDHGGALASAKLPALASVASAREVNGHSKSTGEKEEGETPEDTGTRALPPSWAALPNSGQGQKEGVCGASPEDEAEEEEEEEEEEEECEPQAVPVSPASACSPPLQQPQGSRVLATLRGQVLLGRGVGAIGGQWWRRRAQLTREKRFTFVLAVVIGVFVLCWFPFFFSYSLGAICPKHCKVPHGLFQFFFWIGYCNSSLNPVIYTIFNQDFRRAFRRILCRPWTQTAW
# Procedure, shortened: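 Membranes from CHO-K1 cells expressing the receptor were incubated with 2.5 nM [3H]Rauwolscine for 60 min at 25 °C in Tris-HCl buffer pH 7.4 with MgCl2, EDTA and BSA. Non-specific binding was defined with 10 μM prazosin. Compounds were tested at ≤1 μM in 1% DMSO and read out as % inhibition of specific binding after filtration.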
# [2] = target: T2, human recombinant serotonin (5-Hydroxytryptamine) 5-HT2A receptor (Homo sapiens, UniProt P28223); assay: Serotonin 5-HT2A radioligand binding ([3H]Ketanserin); conditions: for inhibition at 1 µM: read-out: Inhibition of ligand binding, Serotonin 5-HT2A (percent inhibition of specific binding), compound at 1 μM; for inhibition at 0.1 µM: read-out: Inhibition of ligand binding, Serotonin 5-HT2A (percent inhibition of specific binding), compound at 0.1 μM
# T2 construct: expressed in transfected cells; host or cells: Chinese hamster ovary (CHO-K1) cells
# Method: Compounds of the invention were incubated with 0.5 nM [^3H]Ketanserin for 60 min. at 25° C. Non-specific binding was estimated in the presence of 1 μM Mianserin. Receptor proteins were filtered and washed, the filters were then counted to determine [^3H]Ketanserin specifically bound.
# [3] = target: T3, human recombinant histamine H2 receptor (Homo sapiens, UniProt P25021); assay: Histamine H2 radioligand binding ([125I]Aminopotentidine); conditions: for inhibition at 1 µM: read-out: Histamine Binding (1 μM) H2, percent inhibition of specific binding, 1 μM
# T3 construct: expressed in transfected cells; host or cells: Chinese hamster ovary (CHO) K1 cells
# Procedure, shortened: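 Receptor source: human recombinant H2 in CHO-K1 cells, assayed in 50 mM phosphate pH 7.4. Competition against 0.1 nM [125I]aminopotentidine, 120 min, 25 °C; 3 μM tiotidine sets nonspecific binding, filter-bound counts give specific binding.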
# [4] = target: T4, human recombinant serotonin (5-Hydroxytryptamine) 5-HT2C receptor (Homo sapiens, UniProt P28335); assay: Serotonin 5-HT2C radioligand binding ([3H]Mesulergine); conditions: for inhibition at 1 µM / inhibition at 0.1 µM: read-out: Inhibition of ligand binding, Serotonin 5-HT2C (percent inhibition of specific binding); for inhibition at 0.1 µM: compound at 0.1 μM
# T4 construct: expressed in transfected cells; host or cells: Chinese hamster ovary (CHO-K1) cells
# T4 sequence (P28335 33-458): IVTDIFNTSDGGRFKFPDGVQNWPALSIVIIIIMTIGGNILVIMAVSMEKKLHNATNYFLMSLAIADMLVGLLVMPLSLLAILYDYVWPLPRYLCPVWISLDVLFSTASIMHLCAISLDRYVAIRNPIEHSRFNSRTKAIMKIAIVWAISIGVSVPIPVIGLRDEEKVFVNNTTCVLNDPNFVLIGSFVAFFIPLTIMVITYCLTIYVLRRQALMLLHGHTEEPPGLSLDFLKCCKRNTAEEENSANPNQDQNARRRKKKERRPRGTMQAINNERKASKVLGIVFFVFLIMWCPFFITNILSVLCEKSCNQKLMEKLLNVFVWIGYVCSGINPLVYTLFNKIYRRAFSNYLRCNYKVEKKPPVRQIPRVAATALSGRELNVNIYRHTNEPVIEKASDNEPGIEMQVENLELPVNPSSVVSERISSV
# Procedure, shortened: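 Compounds tested at 1 μM or lower (1% DMSO vehicle) for displacement of 1 nM [3H]Mesulergine over 60 min at 25° C. Specific binding determined by filtration counting, with 1 μM Mianserin defining non-specific binding; values are percent inhibition.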
# histamine receptor H1 = histamine receptor H1 (Homo sapiens, UniProt P35367); assay: Histamine H1 radioligand binding ([3H]Pyrilamine); conditions: for inhibition at 1 µM: read-out: Histamine Binding (1 μM) H1, percent inhibition of specific binding, 1 μM
# Procedure, shortened: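 Values are percent inhibition of specific [3H]pyrilamine (1.2 nM) binding with compounds at ≤1 μM (1% DMSO vehicle); 180 min incubation at 25 °C, pH 7.4 Tris buffer, on CHO-expressed human H1 receptor; 1 μM pyrilamine defined nonspecific binding, bound ligand counted after filtration.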
# [5] = […] [3H]Rauwolscine, read-out: Inhibition of ligand binding, Adrenergic α2B (percent inhibition of specific binding)
# [6] = percent inhibition of specific binding, read-out: Inhibition of ligand binding, Adrenergic α2B
# T3 sequence (P25021 whole entry): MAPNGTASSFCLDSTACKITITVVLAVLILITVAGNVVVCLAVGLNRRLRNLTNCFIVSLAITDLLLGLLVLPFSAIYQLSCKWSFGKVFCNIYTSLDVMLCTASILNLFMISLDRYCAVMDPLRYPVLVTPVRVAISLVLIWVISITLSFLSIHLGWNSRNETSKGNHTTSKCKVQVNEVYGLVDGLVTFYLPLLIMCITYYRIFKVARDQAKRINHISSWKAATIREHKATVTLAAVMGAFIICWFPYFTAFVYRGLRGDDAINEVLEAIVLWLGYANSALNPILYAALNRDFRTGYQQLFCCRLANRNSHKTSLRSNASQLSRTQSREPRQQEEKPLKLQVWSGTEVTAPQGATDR
# T2 sequence (P28223 whole entry): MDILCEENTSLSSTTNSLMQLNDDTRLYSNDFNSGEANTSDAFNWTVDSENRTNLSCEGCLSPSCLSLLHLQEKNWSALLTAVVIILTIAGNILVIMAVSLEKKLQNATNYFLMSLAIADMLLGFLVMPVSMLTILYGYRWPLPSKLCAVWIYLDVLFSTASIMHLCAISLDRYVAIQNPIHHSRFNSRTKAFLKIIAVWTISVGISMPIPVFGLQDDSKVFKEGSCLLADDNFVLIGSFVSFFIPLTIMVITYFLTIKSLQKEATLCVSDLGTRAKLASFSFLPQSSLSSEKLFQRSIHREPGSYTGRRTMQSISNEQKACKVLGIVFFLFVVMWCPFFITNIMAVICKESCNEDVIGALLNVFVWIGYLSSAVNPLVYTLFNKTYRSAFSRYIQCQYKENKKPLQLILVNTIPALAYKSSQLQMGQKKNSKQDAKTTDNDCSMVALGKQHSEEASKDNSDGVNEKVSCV
# Chain of histamine receptor H1 (P35367 whole entry): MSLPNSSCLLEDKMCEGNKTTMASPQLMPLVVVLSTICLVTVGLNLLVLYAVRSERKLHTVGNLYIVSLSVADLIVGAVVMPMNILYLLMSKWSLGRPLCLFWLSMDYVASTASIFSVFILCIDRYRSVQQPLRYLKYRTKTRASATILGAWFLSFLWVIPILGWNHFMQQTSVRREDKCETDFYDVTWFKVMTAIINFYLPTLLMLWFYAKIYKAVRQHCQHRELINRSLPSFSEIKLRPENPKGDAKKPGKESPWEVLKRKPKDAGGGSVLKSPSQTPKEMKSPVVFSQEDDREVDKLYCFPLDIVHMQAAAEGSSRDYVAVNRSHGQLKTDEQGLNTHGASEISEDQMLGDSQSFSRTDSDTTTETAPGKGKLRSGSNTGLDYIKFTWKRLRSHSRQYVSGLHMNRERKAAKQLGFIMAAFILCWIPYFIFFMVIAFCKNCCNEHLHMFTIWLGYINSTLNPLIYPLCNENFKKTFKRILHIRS
SMILES,"inhibition at 1 µM [1, 5] [%]",inhibition at 1 µM [2] [%],inhibition at 1 µM [3] [%],inhibition at 1 µM ([4]; compound at 1 μM) [%],inhibition at 1 µM (histamine receptor H1) [%],"inhibition at 1 µM [1, 6] [%]","Histamine Binding (1 μM) H1, percent inhibition of specific binding (histamine receptor H1)","Inhibition of ligand binding, Adrenergic α2B ([1]; percent inhibition of specific binding, 1 µM) [%]","Inhibition of ligand binding, Serotonin 5-HT2A (percent inhibition of specific binding) ([2]; compound at 1 μM, 1 µM) [%]","Histamine Binding (1 μM) H2, percent inhibition of specific binding ([3]; 1 μM) [%]","Inhibition of ligand binding, Serotonin 5-HT2C (percent inhibition of specific binding) ([4]; compound at 1 μM, 1 µM) [%]",inhibition at 0.1 µM [2] [%],inhibition at 0.1 µM [4] [%]
"CN1CCc2c(c3cc(Cl)ccc3n2C#Cc2ccc(Cl)cc2)C1 [Compound No. 480, 8-chloro-5-((4-chlorophenyl)ethynyl)-2-methyl-2,3,4,5-tetrahydro-1H-pyrido[4,3-b]indole]",100,98,93,102,40,,,,,,,,
"CCN1CCc2c(c3ccccc3n2CC(O)c2ccc(C)cc2)C1 (racemic) [Compound 44, racemic-2-(2-ethyl-1,2,3,4-tetrahydropyrido[4,3-b]indol-5-yl)-1-p-tolylethanol]",,80,26,36,54,94,,,,,,,
"C=C(Cn1c2c(c3cc(Cl)ccc31)CN(C)CC2)c1ccc(C)nc1 [Compound 136, 8-chloro-2,3,4,5-tetrahydro-2-methyl-5-(2-(6-methylpyridin-3-yl)allyl)-1H-pyrido[4,3-b]indole]",,100,85,93,99,90,,,,,,,
"CCC/C=C(/Cn1c2c(c3cc(Cl)ccc31)CN(C)CC2)c1ccc(F)cc1 [Compound No. 351, (E)-8-chloro-5-(2-(4-fluorophenyl)hex-2-enyl)-2-methyl-2,3,4,5-tetrahydro-1H-pyrido[4,3-b]indole]",99,100,100,101,78,,80%,,,,,,
"C/C(=C\n1c2c(c3cc(Cl)ccc31)CN(C)CC2)c1ccc(Cl)cc1Cl [Compound 210, (E)-8-chloro-5-(2-(2,4-dichlorophenyl)prop-1-enyl)-2-methyl-2,3,4,5-tetrahydro-1H-pyrido[4,3-b]indole]",,,,,,,53%,102,98,96,99,,
"CN1CCc2c(c3cc(C(=O)O)ccc3n2C#Cc2ccc(F)cc2)C1 [Compound No. 482, 5-((4-fluorophenyl)ethynyl)-2-methyl-2,3,4,5-tetrahydro-1H-pyrido[4,3-b]indole-8-carboxylic acid]",6,-8,-3,-12,13,,,,,,,,
"CC(=Cn1c2c(c3cc(Cl)ccc31)CN(C)CC2)c1ccc(Cl)cc1Cl (stereo in doubt) [Compound 111, (Z)-8-chloro-5-(2-(2,4-dichlorophenyl)prop-1-enyl)-2,3,4,5-tetrahydro-2-methyl-1H-pyrido[4,3-b]indole]",,99,91,100,,90,73% and 74%,,,,,86,95
"Cc1ccc2c(c1)c1c(n2CC(O)c2cccnc2)CCN(C)C1 (stereo not drawn) [Compound 54, 2-(1,2,3,4-tetrahydro-2,8-dimethylpyrido[4,3-b]indol-5-yl)-1-(pyridin-3-yl)ethanol]",,42,5,22,68,103,,,,,,,
"CN1CCc2c(c3cc(Cl)ccc3n2C/C=C/c2ccncc2)C1 [Compound 127, 8-chloro-2,3,4,5-tetrahydro-2-methyl-5-((E)-3-(pyridin-4-yl)allyl)-1H-pyrido[4,3-b]indole]",,84,22,72,100,68,,,,,,,
"CCCCC(O)(Cn1c2c(c3cc(Cl)ccc31)CN(C)CC2)c1ccc(F)cc1 (stereo not drawn) [Compound 178, 1-(8-chloro-2-methyl-3,4-dihydro-1H-pyrido[4,3-b]indol-5(2H)-yl)-2-(4-fluorophenyl)hexan-2-ol]",,98,89,95,30,79,,,,,,,
"CNC(=O)C/C(=C\n1c2c(c3cc(C)ccc31)CN(C)CC2)c1ccc(F)cc1 [Compound 207, (E)-4-(2,8-dimethyl-3,4-dihydro-1H-pyrido[4,3-b]indol-5(2H)-yl)-3-(4-fluorophenyl)-N-methylbut-3-enamide]",,97,46,97,15,80,,,,,,,
"C=C(Cn1c2c(c3cc(Cl)ccc31)CN(C)CC2)c1cccnc1 [Compound 133, 8-chloro-2,3,4,5-tetrahydro-2-methyl-5-(2-(pyridin-3-yl)allyl)-1H-pyrido[4,3-b]indole]",,96,60,96,101,103,,,,,,,
"CCOC(=O)/C=C(/Cn1c2c(c3cc(C)ccc31)CN(C)CC2)c1ccccc1 [Compound No. 347, (E)-ethyl 4-(2,8-dimethyl-3,4-dihydro-1H-pyrido[4,3-b]indol-5(2H)-yl)-3-phenylbut-2-enoate]",,100,87,104,42,111,56%,,,,,,
"CCC(O)(Cn1c2c(c3cc(Cl)ccc31)CN(C)CC2)c1ccc(F)cc1 (stereo not drawn) [Compound 78, 1-(8-chloro-1,2,3,4-tetrahydro-2-methylpyrido[4,3-b]indol-5-yl)-2-(4-fluorophenyl)butan-2-ol]",,97,89,103,52,87,69%,,,,,76,69
"CCC(O)(Cn1c2c(c3cc(C)ccc31)CN(C)CC2)c1ccc(F)cc1 (stereo not drawn) [Compound 175, 1-(2,8-dimethyl-3,4-dihydro-1H-pyrido[4,3-b]indol-5(2H)-yl)-2-(4-fluorophenyl)butan-2-ol]",,102,91,95,71,96,,,,,,,
"Cc1ccc(C(O)Cn2c3c(c4ccccc42)CN(C)CC3)cc1 (racemic) [Compound 53, racemic-2-(1,2,3,4-tetrahydro-2-methylpyrido[4,3-b]indol-5-yl)-1-p-tolylethanol]",,100,58,82,47,114,,,,,,,
